Columns and labels:
BRD2 = BRD2 (Homo sapiens, UniProt P25440); experiment: Binding affinity to BET and STAT family members
BRDT = BRDT (Homo sapiens, UniProt Q58F21); experiment: Binding affinity to BET and STAT family members
STAT2 = STAT2 (Homo sapiens, UniProt P52630); experiment: Binding affinity to BET and STAT family members
STAT5a = STAT5a (Homo sapiens, UniProt P42229); experiment: Binding affinity to BET and STAT family members
CAKI-2 cells = experiment: MTT cytotoxicity assay; assay type: cell-based, human
Procedure: Human normal renal cortical proximal tubular epithelial cell line HK-2 and human renal carcinoma cell lines CAKI-2, SLR-23, 769-P, A704 and RCC4 were previously purchased from the American Type Culture Collection (ATCC, Manassas, VA, USA) or the European Collection of Cell Cultures (ECACC, Salisbury, United Kingdom). HK2, A704, and RCC4 cells were maintained in high glucose DMEM supplemented with 10% FBS and 1% penicillin/streptomycin. SLR-23 and […] cells were cultured in RPMI-1640 medium with 10% FBS and 1% penicillin/streptomycin. CAKI-2 cells were maintained in McCoy’s 5A medium supplemented with 10% FBS and 1% penicillin/streptomycin. All the cell lines were cultured at 37°C in a humidified atmosphere of 5% CO2 and 95% air.
The effect of hit compounds on cytotoxicity was determined as previously reported ([Ding et al., 2020]). In brief, cells treated with the tested compounds were added with MTT reagent to form formazan crystals, and then the optical density (OD) values at 570 nm were determined after the crystals were dissolved in DMSO. […] Next, the values of IC50 of the selected compounds against more RCC cell lines were determined. The 5 × 10^3 cells in 100 μL culture medium were injected into each well of a 96-well plate and cultured overnight. Add different concentrations of compounds and incubate for 48 h. Then 100 μL of MTT (0.5 mg/mL) solution was added to the 96-well plate and maintained at 37°C for 4 h. Finally, 200 μL of DMSO was added and shaken for 10 min. The OD values at 570 nm were determined by a Synergy 4 microplate reader.

CAKI-2 xenograft tumors = experiment: CAKI-2 cell-derived xenograft model; assay type: in vivo, BALB/c nude mice; details: 10 mg/kg intraperitoneally every 12 h, nude mice
Procedure: (§1) To further investigate the in vivo effects of BST-4, 6–8 weeks male BALB/c nude mice were obtained by Changzhou Cavens Experimental Animal Co., Ltd. (Changzhou, China). The mice were acclimatized to the laboratory environment for a week before the experiment. The housing conditions were maintained at a temperature of 22°C ± 2°C, a relative humidity of 50%–60%, and a 12-h light/dark cycle. 0.1 mL of CAKI-2cell suspension (1 × 10⁶ cells) was subcutaneously injected into the right flank of each mouse. […] The vehicle group was injected with a vehicle solution consisting of 5% DMSO and PBS. The tumor volume of mice was measured every 2 days and calculated according to the formula: (c × c × d)/2, where c and d represent the minimum diameter and maximum diameter, respectively. All animal experiments were performed and approved by the Ethics Committee of China Pharmaceutical University.

c-myc mRNA and Ki67 mRNA = experiment: RT-qPCR on xenograft tumor tissues; assay type: in vivo, BALB/c nude mice; details: xenograft tumor tissue
Procedure: This method was performed as previously reported. Briefly, the CAKI-2 cells were seeded into 6-well plates and cultured overnight, and treated with different concentrations of BST-4 for 24 h. RNA was extracted from cells and tissues using Trizol reagent and reverse transcribed using PrimeScriptRTase. cDNA was used for RT-qPCR SYBR Green assays (Takara). The relative levels of c-myc mRNA were calculated as [(c-myc mRNA in the treatment group)/(β-actin mRNA in the treatment group)]/[(c-myc mRNA in the control group)/(β-actin mRNA in the control group).
as §1, with “All animal experiments were performed and approved by the Ethics Committee of China Pharmaceutical University.” left out

[1] = tested on: p-STAT3 and c-myc protein; experiment: Western blot on xenograft tumor tissues; assay type: in vivo, BALB/c nude mice; details: xenograft tumor tissue
Procedure: For the assessment of protein expression levels, Western blot analysis was conducted following a standardized protocol ([Zhou et al., 2022]). The CAKI-2 cells were initially rinsed with PBS to remove any residual culture medium. Subsequently, cells were lysed using a RIPA buffer supplemented with 1 mM phenylmethylsulfonyl fluoride (PMSF), and the lysate was incubated on ice for a duration of 1 h. The lysate was centrifuged at a speed of 13,000 rpm for 30 min at 4°C. Protein concentrations were quantified using a BCA protein assay kit (Beyotime, Shanghai, China), ensuring equal protein loading for each sample. Samples were then resolved by SDS-PAGE and transferred onto a polyvinylidene difluoride (PVDF) membrane. Subsequently, the membrane was blocked with 3% BSA in PBS at room temperature for 2 h and incubated overnight with the corresponding antibody at 4°C. […] The specific protein bands were visualized using ECL detection system (Tanon, Shanghai, China), and the band intensities were quantified using ImageJ software.
To further investigate the in vivo effects of BST-4, 6–8 weeks male BALB/c nude mice were obtained by Changzhou Cavens Experimental Animal Co., Ltd. (Changzhou, China). […] The tumor volume of mice was measured every 2 days and calculated according to the formula: (c × c × d)/2, where c and d represent the minimum diameter and maximum diameter, respectively. […]

[2] = tested on: panel of 76 human kinases; experiment: SelectScreen kinase selectivity panel; assay type: biochemical
Procedure: The kinase selectivity profile of BST-4 was performed by the SelectScreen kinase profiling service (Thermo Fisher Scientific). Kinase selectivity assay was performed using Z′-LYTE ™ screening protocol kit. Briefly, the test compounds were screened in 1% DMSO (final). For 10-point titrations, perform a 3-fold dilution starting at a starting concentration of 50 µM. Then 2.5 µL 4× test compound, 2.4 µL kinase buffer, 5 µL 2× kinase mixture and 2.5 µL 4× ATP solution was added in black 384-well plate. After shaking for 30 s, the plates were incubated for 60 min at room temperature. Add developing reagent solution and shake the plate for 30 s, then incubate for 1 h at room temperature. The Fluorescence intensity per well was read using a fluorescence plate reader. SelectScreen® Kinase Profiling Service used XLfit from IDBS. The dose response curve was curve fit to model number 205 (sigmoidal dose-response model) and inhibition rates were calculated. 50% inhibition was used as a activity threshold. IC50 values were calculated based on curve fitting.

BRD4 [3] = biological target: T1, BRD4 (Homo sapiens, UniProt O60885); experiment: AlphaScreen BRD4 binding inhibition assay; parameters: purchased Abcam
STAT3 = STAT3 (Homo sapiens, UniProt P40763); experiment: STAT3 binding inhibition assay; parameters: purchased Abcam
Chain of STAT3 (P40763 whole entry): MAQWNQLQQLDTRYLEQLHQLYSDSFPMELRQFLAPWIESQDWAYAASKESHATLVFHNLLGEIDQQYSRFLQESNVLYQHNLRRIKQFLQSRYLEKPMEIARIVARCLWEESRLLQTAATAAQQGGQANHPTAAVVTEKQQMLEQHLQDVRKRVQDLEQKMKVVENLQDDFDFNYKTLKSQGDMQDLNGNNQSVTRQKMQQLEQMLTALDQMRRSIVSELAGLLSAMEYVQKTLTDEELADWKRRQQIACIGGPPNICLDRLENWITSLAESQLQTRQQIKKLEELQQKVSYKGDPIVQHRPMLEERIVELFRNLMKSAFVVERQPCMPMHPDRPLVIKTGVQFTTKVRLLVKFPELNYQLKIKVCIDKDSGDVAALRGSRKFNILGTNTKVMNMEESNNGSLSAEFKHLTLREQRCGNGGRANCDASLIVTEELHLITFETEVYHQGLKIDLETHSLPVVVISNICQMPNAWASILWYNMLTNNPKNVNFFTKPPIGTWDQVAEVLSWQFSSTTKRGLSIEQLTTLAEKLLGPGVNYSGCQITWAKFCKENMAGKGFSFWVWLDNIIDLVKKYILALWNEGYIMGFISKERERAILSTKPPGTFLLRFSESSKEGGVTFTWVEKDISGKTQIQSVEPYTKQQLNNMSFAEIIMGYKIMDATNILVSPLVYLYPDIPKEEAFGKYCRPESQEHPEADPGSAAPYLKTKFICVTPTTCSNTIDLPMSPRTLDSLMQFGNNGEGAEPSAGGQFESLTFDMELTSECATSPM

BRD4 [4] = biological target: T1, BRD4; experiment: Microscale thermophoresis (MST) assay; assay type: binding; parameters: purchased Abcam

Chain of STAT5a (P42229 whole entry): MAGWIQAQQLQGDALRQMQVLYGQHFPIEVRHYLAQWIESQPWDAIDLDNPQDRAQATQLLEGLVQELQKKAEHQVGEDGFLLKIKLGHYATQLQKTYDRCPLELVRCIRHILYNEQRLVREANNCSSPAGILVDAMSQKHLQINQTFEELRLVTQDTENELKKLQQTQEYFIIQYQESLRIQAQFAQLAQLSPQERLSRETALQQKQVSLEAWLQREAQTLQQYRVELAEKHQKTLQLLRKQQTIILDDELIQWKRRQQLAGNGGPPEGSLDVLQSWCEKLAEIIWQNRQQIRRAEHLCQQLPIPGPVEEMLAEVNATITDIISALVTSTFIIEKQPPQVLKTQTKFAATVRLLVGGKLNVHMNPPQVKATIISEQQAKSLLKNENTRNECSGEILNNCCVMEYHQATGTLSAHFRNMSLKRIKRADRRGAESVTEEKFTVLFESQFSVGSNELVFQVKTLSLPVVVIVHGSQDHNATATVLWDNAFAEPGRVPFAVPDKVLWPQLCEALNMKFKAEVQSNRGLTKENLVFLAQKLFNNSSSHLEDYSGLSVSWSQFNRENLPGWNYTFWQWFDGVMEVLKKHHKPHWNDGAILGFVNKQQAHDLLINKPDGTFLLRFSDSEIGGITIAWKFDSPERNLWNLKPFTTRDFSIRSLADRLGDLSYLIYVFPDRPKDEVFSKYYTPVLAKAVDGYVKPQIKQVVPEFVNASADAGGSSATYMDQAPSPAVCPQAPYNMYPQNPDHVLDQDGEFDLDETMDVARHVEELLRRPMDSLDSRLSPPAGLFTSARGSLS
Chain of STAT2 (P52630 whole entry): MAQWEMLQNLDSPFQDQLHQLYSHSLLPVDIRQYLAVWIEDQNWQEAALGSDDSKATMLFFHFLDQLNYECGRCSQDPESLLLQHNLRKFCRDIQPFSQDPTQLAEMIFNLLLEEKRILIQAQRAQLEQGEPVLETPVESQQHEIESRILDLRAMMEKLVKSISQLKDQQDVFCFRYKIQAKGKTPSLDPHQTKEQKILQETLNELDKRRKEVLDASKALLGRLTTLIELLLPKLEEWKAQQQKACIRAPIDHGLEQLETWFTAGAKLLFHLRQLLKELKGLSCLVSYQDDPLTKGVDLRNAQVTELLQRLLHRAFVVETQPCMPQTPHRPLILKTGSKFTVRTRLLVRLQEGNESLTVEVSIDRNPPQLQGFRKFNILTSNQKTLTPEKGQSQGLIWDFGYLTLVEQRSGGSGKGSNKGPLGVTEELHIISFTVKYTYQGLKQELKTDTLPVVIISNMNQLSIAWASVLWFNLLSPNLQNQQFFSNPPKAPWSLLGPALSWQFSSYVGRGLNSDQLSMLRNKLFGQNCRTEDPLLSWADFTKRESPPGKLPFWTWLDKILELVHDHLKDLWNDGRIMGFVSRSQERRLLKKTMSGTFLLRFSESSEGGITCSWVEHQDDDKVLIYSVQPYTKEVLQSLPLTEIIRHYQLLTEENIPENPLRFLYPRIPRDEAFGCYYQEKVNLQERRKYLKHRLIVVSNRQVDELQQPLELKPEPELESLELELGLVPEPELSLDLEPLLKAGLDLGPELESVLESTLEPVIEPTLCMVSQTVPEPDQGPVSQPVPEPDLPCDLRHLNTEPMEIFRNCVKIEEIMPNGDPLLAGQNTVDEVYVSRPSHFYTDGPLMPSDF
Chain of BRD2 (P25440 whole entry): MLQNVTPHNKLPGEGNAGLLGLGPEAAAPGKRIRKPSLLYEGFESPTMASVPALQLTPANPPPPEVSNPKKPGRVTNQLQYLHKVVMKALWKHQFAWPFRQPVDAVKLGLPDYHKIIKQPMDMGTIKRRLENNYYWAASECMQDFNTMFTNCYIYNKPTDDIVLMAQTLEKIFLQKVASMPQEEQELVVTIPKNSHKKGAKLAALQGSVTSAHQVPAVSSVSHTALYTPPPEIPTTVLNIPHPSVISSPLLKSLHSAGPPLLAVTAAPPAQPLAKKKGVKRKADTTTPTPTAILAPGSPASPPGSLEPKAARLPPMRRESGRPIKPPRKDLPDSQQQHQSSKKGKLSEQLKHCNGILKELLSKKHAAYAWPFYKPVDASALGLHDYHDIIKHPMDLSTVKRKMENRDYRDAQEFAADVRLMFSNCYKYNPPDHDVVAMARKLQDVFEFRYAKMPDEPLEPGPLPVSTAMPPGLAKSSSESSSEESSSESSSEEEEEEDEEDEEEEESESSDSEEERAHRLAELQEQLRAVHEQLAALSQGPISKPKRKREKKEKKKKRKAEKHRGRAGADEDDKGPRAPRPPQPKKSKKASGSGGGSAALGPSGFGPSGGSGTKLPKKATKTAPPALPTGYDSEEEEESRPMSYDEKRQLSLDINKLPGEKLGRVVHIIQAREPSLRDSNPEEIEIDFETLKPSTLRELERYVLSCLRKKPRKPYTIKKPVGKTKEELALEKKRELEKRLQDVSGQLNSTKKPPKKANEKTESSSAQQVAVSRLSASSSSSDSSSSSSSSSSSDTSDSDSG

Kd (BRD2): > 10000 nM | Kd (BRDT): > 10000 nM | Kd (STAT2): > 10000 nM | Kd (STAT5a): > 10000 nM | inhibition of all 76 kinases at 1 µM ([2]; 1 µM): less than 10% | IC50 ([2]; read-out: IC50 on panel of 76 human kinases, all kinases of the panel): > 10000 nM | IC50 (BRD4 [3]): 2.45 ± 0.11 nM | BRD4 inhibition relative to RVX-208 (BRD4 [3]; IC50 ratio vs RVX-208): about 16 fold | IC50 (STAT3): 8.07 ± 0.51 nM | STAT3 inhibition relative to CJ-1383 (STAT3; IC50 ratio vs CJ-1383): about 115 fold | BRD4 binding affinity relative to RVX-208 (BRD4 [4]; Kd ratio vs RVX-208, MST): 17 fold | Kd (BRD4 [4]; MST): 1.46 ± 0.07 nM
SMILES: CCS(=O)(=O)Cc1cnc(Oc2c(F)cc(F)cc2OCCCCOc2ccc(/C=C/c3cc(OC)cc(OC)c3)cc2)c(-c2cc(C)c3c(=O)[nH]ccn23)c1 [BST-4]
IC50 (CAKI-2 cells; Homo sapiens, CAKI-2, cell growth, 48 h treatment, read-out: IC50 (μM) ± SD CAKI-2): 0.76 ± 0.05 µM | cell inhibitory rate (%) against CAKI-2 cells (CAKI-2 cells; all compounds at the same concentration): more than 95% | tumor growth (tumor volume) in CAKI-2 xenograft (CAKI-2 xenograft tumors): significantly inhibited tumor growth | Ki67 mRNA expression level in tumor tissues in vivo (c-myc mRNA and Ki67 mRNA): downregulated | c-myc mRNA expression level in tumor tissues in vivo (c-myc mRNA and Ki67 mRNA): downregulated | c-myc protein expression level in tumor tissues [1]: significantly downregulated | p-STAT3 protein expression level in tumor tissues [1]: significantly downregulated
